In PubChem BioAssay AID179 (DTP/NCI, 2004):
Values joined by “and” are separate entries in the source; they are usually repeats but may differ in a detail not shown here. Equal values may be shown once. Active and inactive are the calls of the source.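 The calls were made as follows: active = compounds giving half or more protection of infected cells from virus-caused growth loss, again on retest; inactive = the rest.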

Test system: CEM cells HIV-1 protection, formazan growth assay
Test: NCI AIDS Antiviral Assay
Conditions: for IC50: measured here: growth of uninfected CEM cells
Outline: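 Human CEM cells, uninfected and HIV-1-infected, exposed to five drug concentrations; growth measured by soluble formazan assay and scored as percent protection from infection, with protecting compounds retested.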

Compound | EC50 | IC50 [µM] | outcome
O=C(CCCC(=O)NNC(=O)Nc1ccc(N=Nc2ccccc2)cc1)NNC(=O)Nc1ccc(N=Nc2ccccc2)cc1 | > 200 µM | > 200 | –
Cc1nn(C)c(N)c1N=O | > 200 µM | > 200 | –
COc1cc2c3c(ccc2cc1O)-c1cc(OC)c(OC)cc1C[N+]3(C)C | > 4.47 µM | > 4.47 | –
CCCCN(CCC/C=C/OC)C(C#N)c1ccccc1 (centres undefined) | > 871 µM | > 871 | –
COc1ccc2c(c1)C1C(CO2)C(c2ccccc2)=NN1c1ccccc1 (centres undefined) | > 20.4 µM | > 20.4 | –
CCC(C)(O)c1cn(-c2ccc(Cl)cc2)nn1 (centres undefined) | > 708 µM | 324 | –
CC(=O)C1=C(C)N2C(=NC3=C(CCc4ccccc43)C2c2cccc(Br)c2)S1 (centres undefined) | > 200 µM | 81.3 | –
COC(=O)C1(Cc2ccccc2)Cc2c(C)ccc(C)c2C1=O (centres undefined) | > 200 µM | > 200 | –
Cc1ncc([N+](=O)[O-])n1CCOC(N)=O | > 200 µM | > 200 | –
O=C1NC(=O)C(CCCCO)N1 (centres undefined) | – | – | inactive
O=C(NNC(=O)c1ccccc1S)c1ccccc1S | 4.17 µM | 14.5 | –
O=[N+]([O-])c1ccc(C2=Nn3cnnc3SC2)o1 | – | – | inactive
CCOC(=O)c1nnsc1NN=C(C)C | > 200 µM | > 200 | –
Cc1cc(C)nc(NS(=O)(=O)c2ccc(Nc3c4ccccc4nc4c(C(=O)NC(CO)(CO)CO)cccc34)cc2)n1 | > 200 µM | 9.33 | –
NC1=Nc2ccccc2Sc2nc3ccccc3n21 | > 200 µM | 8.71 | –
COc1ccc2c3c1OC1C4(CCC5C(C2)N(CC2CC2)CCC351)OCCO4 (centres undefined) | > 129 µM | > 129 | –
O=C1NC(=S)N/C1=C\c1cc2c(=O)c3ccccc3sc2s1 | 75.9 µM | 81.3 | –
CN(C)CCCSCCOc1nccc(-c2ccc(-c3ccc(-c4ccnc(OCCSCCCN(C)C)n4)s3)s2)n1 | 1.1 µM | 2.75 | –
COc1ccc2c(c1)[n+](=O)c(C(=O)C/C(=N\NC(=O)C[N+](C)(C)C)C(=O)Nc1cc(Cl)ccc1Cl)c(C)n2O | > 1.23 µM | > 1.23 | –
Nc1cc(N2CCOCC2)nc(=O)n1-c1ccccc1 | > 200 µM | > 200 | –
S=c1[nH]nc(COc2ccc(Cl)cc2)n1-c1ccccc1 | > 200 µM | 30.9 | –
CCCCCC(=O)N1SC(NC(=O)OC)=Nc2ccccc21 | > 155 µM | 8.32 | –
Cc1nc(N(CCO)CCO)c2sc(=S)n(-c3ccccc3)c2n1 | > 10.5 µM | > 10.5 | –

Compound | EC50 | IC50 [µM] | outcome
O=C(CC(C(=O)c1cccs1)c1ccc2c(c1)OCO2)c1ccccc1 (centres undefined) | > 200 µM | > 200 | –
O=C(CC(=O)N1N=C(n2ccc3ccccc32)CC1c1ccccc1)Nc1ccc(Cl)cc1 (centres undefined) | > 1.2 µM | > 1.2 | –
FC(F)(F)c1cc(Cl)c2ccc3ccccc3c2n1 | – | 12.6 | inactive
Cc1csc2[n+]1C(=O)/C(=C\c1ccc([N+](=O)[O-])cc1)S2 | > 200 µM | 29.5 | –
O=C(CNC1=NCCN1)Nc1ccc(NC(=O)c2ccc(C(=O)Nc3ccc(NC(=O)CNC4=NCCN4)cc3)cc2)cc1 | 24 µM | > 200 | –
CCOC(=O)CC1=NC(=Nc2cc(Cl)ccc2Cl)SC1 | > 77.6 µM | > 77.6 | –
O=C(O)C[C@@H](Cl)[C@H](NC(=O)OCc1ccccc1)C(=O)O | – | – | inactive
COCCOCCOCCC(=O)NC1CC2CCC1(C)C2(C)C (centres undefined) | > 200 µM | > 200 | –
COc1cc2c(cc1OC)C(=O)/C(=C/c1ccc(N(C)C)cc1)CC2 | > 155 µM | 110 | –
CC1=NN(C(=O)c2ccccc2O)C(=O)/C1=C/c1ccco1 | > 87.1 µM | 0.603 | –
O=C(CC(=O)N1N=C(N(c2ccccc2)c2ccccc2)CC1c1ccccc1)Nc1ccc(Cl)cc1 (centres undefined) | – | – | inactive
O=C(CCc1ccccc1)On1c(-c2ccccc2)nc2ccccc2c1=S | > 200 µM | 3.47 | –
Cc1ccc(S(=O)(=O)OC2C3CCC4C(COC42)C3)cc1 (centres undefined) | 79.4 µM and 77.6 µM | > 200 | –
CC1(C)OC2OC(C(=O)c3ccccc3)C3OC(C)(C)OC3C2O1 (centres undefined) | – | – | inactive
O=C(C/C=C/c1ccccc1)c1ccccc1 | > 200 µM | 10 | –
c1ccc(CN2CCCCC(Sc3ccccc3)CC2)cc1 (centres undefined) | > 43.7 µM | 34.7 | –
Cn1c(=O)c2nc3c4ccccc4c(=O)n(C)c3nc2n(C)c1=O | – | – | inactive
Cn1c(=O)oc(=O)c2ccccc21 | – | – | inactive
COc1ccc(C2CC(=O)c3c(O)cc(OC4OC(CO)C(O)C(O)C4OC4OC(C)C(O)C(O)C4O)cc3O2)cc1O (centres undefined) | > 200 µM | > 200 | –
c1ccc(CNc2nnc(NCc3ccccc3)c3c2ncn3Cc2ccccc2)cc1 | – | – | inactive
Cc1c(O)nc(-n2[nH]c3c(c2=O)CCCC3)[nH]c1=O | > 200 µM | > 200 | –
CC(=O)N(CCc1ccccc1)C(C#N)c1ccc(OCCCCCCCCCCOc2ccc(C(C#N)N(CCc3ccccc3)C(C)=O)cc2)cc1 (centres undefined) | > 100 µM | > 100 | –
Cn1ccc2c(C(=O)c3ccccc3)cccc2c1=O | – | – | inactive

Compound | EC50 | IC50 [µM] | outcome
CC(C)CNC(=S)N/N=C\c1ccncc1 | > 200 µM | 105 | –
CCn1c(-c2ccc(C)cc2)cs/c1=N\C(P(=O)(O)O)P(=O)(O)O | > 50.1 µM | > 50.1 | –
C/C(=N/NC(=S)NCCc1ccccn1)c1cnccn1 | > 200 µM | 8.71 | –
CC1(C(=O)Nc2ccccc2)CC2(C)CC(C)(C1)C(O)NC2=O (centres undefined) | – | – | inactive
C/C(=N\Nc1ccccc1Br)c1cccc(/C(C)=N/Nc2ccccc2Br)n1 | > 100 µM | 85.1 | –
C#[N+]CCOP(=O)(OCC1OC(n2cc(C)c(=O)[nH]c2=O)CC1N=[N+]=[N-])O[C@H]1CC[C@@]2(C)C(=CC[C@H]3[C@@H]4CC[C@H](C(C)CCCC(C)C)[C@@]4(C)CC[C@@H]32)C1 (some centres undefined) | 4.17 µM and 10 µM | > 200 | –
CSc1nn(C)cc2ncnc1-2 | > 200 µM | > 200 | –
COc1cc(N)c2c(c1)SC(c1ccccc1)C(=O)N2 (centres undefined) | > 200 µM | 120 | –
BrC12C3C4C5C(C(C43)C13OCCO3)C52 (centres undefined) | > 708 µM | > 708 | –
CCCC(=O)[O-].CCCC(=O)[O-].NCCN.NCCN.[Co+3].[O-][Cl+3]([O-])([O-])[O-] | – | – | inactive
COc1ccc2cc1Oc1ccc(cc1)CC1c3c(cc4c(c3Oc3cc5c(cc3OC)CCN(C)C5C2)OCO4)CCN1C (centres undefined) | – | – | inactive
CC(=O)OCCCCN1C(=O)CSc2ccccc21 | > 200 µM | > 200 | –
Cn1nccc2c(=O)n(C)c(=O)nc1-2 | > 200 µM | > 200 | –
Cn1c(COc2ccc(/C=N/NC(=O)CCC(=O)N/N=C/c3ccc(OCc4c[n+]5ccccc5n4C)cc3)cc2)c[n+]2ccccc12 | 13.5 µM | 19.1 | –
CC(=O)NCCc1c[nH]c2ccc(Cl)cc12 | > 200 µM | 195 | –
COc1ccc(/C=C2/NC(=S)N=C2Cl)cc1 | > 200 µM | > 200 | –
NC1=NN(c2ccccc2)C(=O)C1/C(=N\NC(=O)c1cc2ccccc2cc1O)C(=O)Nc1nc([N+](=O)[O-])cs1 (centres undefined) | > 12.9 µM | > 12.9 | –
CC(=O)OC(Cc1ccc2ccccc2n1)(C(F)(F)F)C(F)(F)F | – | – | inactive
Cc1csc([C@H]2CCC3[C@@H]4CC=C5C[C@@H](OC(=O)CCC(=O)O)CC[C@]5(C)C4CC[C@@]32C)n1 (some centres undefined) | > 52.5 µM | 33.1 | –
CCOC(=O)CN(c1sc(C)c(-c2ccccc2)c1C(=O)OCC)S(=O)(=O)c1ccc(C)cc1 | > 200 µM | 5.13 | –
CC1(C)c2ccccc2C(C)(C)[N+]1(C)C | > 200 µM | 123 | –
Cc1ccc(N=C2C(=Nc3ccc(C)cc3)N(c3ccc(C)cc3)C(=S)N2C(=O)c2ccccc2)cc1 | > 200 µM | > 200 | –
O=C1NC(O)CCN1C1OC(CO)C(O)C1O (centres undefined) | > 200 µM | > 200 | –

Compound | EC50 | IC50 [µM] | outcome
CC1(SCC(N)C(=O)O)CC(=O)NC1=O (centres undefined) | > 200 µM | > 200 | –
CCOc1ccc(N2C(=O)C3c4[nH]c5ccccc5c4C4CCC(C(C)(C)C)CC4C3C2=O)cc1 (centres undefined) | > 2.19 µM | > 2.19 | –
CC1=Nn2c(nnc2-c2cccc(N)c2)NC(C)(C)C1 | > 468 µM | > 468 | –
CCOC(=O)c1cc2c([nH]1)c(O)cc1c2ccn1Cc1ccccc1 | > 200 µM | 29.5 | –
COC(=O)/C=C(\C=C/C(=O)O)C(=O)O | > 1260 µM | 251 | –
CSc1nc(C#N)c(N)n1C | > 200 µM | > 200 | –
CC(=O)CC(O)(C(F)(F)Cl)C(F)(Cl)Cl (centres undefined) | > 200 µM | > 200 | –
COC(=O)[C@@H]1C[C@@]2(C3C=CN(C(=O)C(F)(F)F)C=C3)c3ccccc3N(C(=O)C(F)(F)F)[C@H]2N1C(=O)OC | > 200 µM | 166 | –
N#Cc1c(-c2ccc(F)cc2)c(-c2ccc(F)cc2)nn(CCO)c1=O | > 141 µM | 1.48 | –
CC(C)=CCNc1nc(Cl)nc2nc[nH]c12 | > 200 µM | 57.5 | –
Clc1ccc(NN(c2ccccc2)c2ccc(Cl)cc2)cc1 | > 200 µM | 115 | –
C/C=C/C1(C)/C(=N\O)C(C)(CCC)C(=O)N1O (centres undefined) | 25.1 µM | 1050 | –
O=C1CCCCC/C1=C\c1ccccc1 | > 200 µM | 52.5 | –
COc1ccc2c(c1)CCN=C2Cc1ccccc1CCCl | > 200 µM | 26.3 | –
Cc1c2ccc(Cl)cc2nc2ccc(OCCCCCCNC(=O)CCCN=C(N)N)cc12 | > 50.1 µM | 22.9 | –
COc1cccc(C=C(C#N)C#N)c1 | > 708 µM | 115 | –
Cn1cnc([N+](=O)[O-])c1Sc1ncccn1 | > 1050 µM | 38 | –
O=C1c2ccccc2C(=O)c2sccc21 | > 200 µM | 7.24 | –
NC(=O)N/N=C1/CCN2CCCc3cccc1c32 | > 200 µM | > 200 | –
Nn1nc2ccccc2n1 | > 1860 µM | > 1860 | –
COc1ccc2nccc(NCCCN3CCN(CCCNc4ccnc5ccc(OC)cc45)CC3)c2c1 | > 0.537 µM | 0.105 | –
Cc1nc(N(C(C)C)C(C)C)c(C(C)C)o1 | > 200 µM | > 200 | –
